# From patent publication US20230255906A1, “Targeting Serpin B9 in Cancer” (The Brigham and Women`s Hospital, Inc., priority 2020, published 2023)
# Test system: B16 melanoma cells
# Assay: Caspase-3 activity assay (EnzChek Caspase-3 Assay Kit), caspase-3 induction in tumor cells; further: test concentration or dose not given here
# Type: cell-based, mouse
# Conditions: for Caspase-3 induction, Normalized to Formula (III) (%): relative to compound of Formula (III)
# Method in brief: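 B16 melanoma cells exposed to compounds for 24 h, lysed on ice 30 min, and lysate incubated with Z-DEVD-R110 substrate about 30 min at room temperature. Fluorescence read at ~496/520 nm against untreated-cell and no-enzyme controls; caspase-3 induction serves as surrogate for GrB activity from Sb9 inhibition.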
SMILES,Ratio of caspase-3 activity to Formula (III),"Caspase-3 induction, Normalized to Formula (III) (%)"
"CC(Cn1cncn1)NC(=O)c1ccc2oc(-c3cccc(F)c3)nc2c1 (stereo not drawn) [2-(3-fluorophenyl)-N-[1-methyl-2-(1H-1,2,4-triazol-1-yl)ethyl]-1,3-benzoxazole-5-carboxamide]",0.1014,–
"COc1cccc(-c2nc3ccc(C(=O)N4CCN(Cc5cccnc5)CC4)cc3o2)c1 [2-(3-methoxyphenyl)-6-{[4-(3-pyridinylmethyl)-1-piperazinyl]carbonyl}-1,3-benzoxazole]",0.1411,–
"O=C(Cc1ccc2ocnc2c1)NCc1ccccc1 [2-(1,3-benzoxazol-5-yl)-N-benzylacetamide]",–,−34.4942
CCOc1ccc(C(=O)NCC2CCOC2)cc1O (stereo not drawn) [4-ethoxy-3-hydroxy-N-[(oxolan-3-yl)methyl]benzamide],–,−24.9053
"O=C(c1ccc2oc(-c3ccc(C(F)(F)F)cc3)nc2c1)N1CC[C@H](O)C1 [(3S)-1-({2-[4-(trifluoromethyl)phenyl]-1,3-benzoxazol-5-yl}carbonyl)-3-pyrrolidinol]",0.1382,–
"CCN(C)C(=O)c1ccc2nc(C(F)(F)C(F)(F)F)oc2c1 [N-ethyl-N-methyl-2-(1,1,2,2,2-pentafluoroethyl)-1,3-benzoxazole-6-carboxamide]",–,−28.449
"COc1cccc(-c2nc3ccc(C(=O)N4CCC(N(C)C)C4)cc3o2)c1 (stereo not drawn) [1-{[2-(3-methoxyphenyl)-1,3-benzoxazol-6-yl]carbonyl}-N,N-dimethyl-3-pyrrolidinamine]",0.9908,–
"COc1cccc(-c2nc3ccc(C(=O)N(C)Cc4nnc(C)o4)cc3o2)c1 [2-(3-methoxyphenyl)-N-methyl-N-[(5-methyl-1,3,4-oxadiazol-2-yl)methyl]-1,3-benzoxazole-6-carboxamide]",0.7091,–
"O=C(N[C@H]1CCCCNC1=O)c1ccc2oc(-c3cccc(F)c3)nc2c1 [2-(3-fluorophenyl)-N-[(3S)-2-oxo-3-azepanyl]-1,3-benzoxazole-5-carboxamide]",0.771,–
"COc1cc(C(=O)NC2CCCC2)cc(OC)c1O [N-cyclopentyl-4-hydroxy-3,5-dimethoxybenzamide]",–,−24.5783
"COc1cccc(-c2nc3ccc(C(=O)N(C)Cc4cc(C)on4)cc3o2)c1 [2-(3-methoxyphenyl)-N-methyl-N-[(5-methylisoxazol-3-yl)methyl]-1,3-benzoxazole-6-carboxamide]",0.2402,–
"COCCCNC(=O)c1ccc2nc(C3CCCO3)oc2c1 (stereo not drawn) [N-(3-methoxypropyl)-2-(oxolan-2-yl)-1,3-benzoxazole-6-carboxamide]",–,−69.878
"CCN(C)C(=O)c1ccc2oc(C)nc2c1 [N-ethyl-N,2-dimethyl-1,3-benzoxazole-5-carboxamide]",–,−65.6678
"CN(CCN1CCOCC1)C(=O)c1ccc2oc(-c3ccc(C(F)(F)F)cc3)nc2c1 [N-methyl-N-[2-(4-morpholinyl)ethyl]-2-[4-(trifluoromethyl)phenyl]-1,3-benzoxazole-5-carboxamide]",0.1327,–
"COc1cccc(-c2nc3ccc(C(=O)N4CCOC(C(N)=O)C4)cc3o2)c1 (stereo not drawn) [4-{[2-(3-methoxyphenyl)-1,3-benzoxazol-6-yl]carbonyl}morpholine-2-carboxamide]",0.1611,–
"CCN(C)C(=O)c1ccc2nc(-c3cc(Cl)cc(Cl)c3)oc2c1 [2-(3,5-dichlorophenyl)-N-ethyl-N-methyl-1,3-benzoxazole-6-carboxamide]",–,−85.6535
"O=C(c1ccc2nc(C(F)(F)C(F)(F)F)oc2c1)N1CCCC1 [2-(1,1,2,2,2-pentafluoroethyl)-6-(pyrrolidine-1-carbonyl)-1,3-benzoxazole]",–,−38.2832
"CCC(=O)C1CCCN(C(=O)c2ccc3nc(-c4cccc(OC)c4)oc3c2)C1 (stereo not drawn) [1-(1-{[2-(3-methoxyphenyl)-1,3-benzoxazol-6-yl]carbonyl}-3-piperidinyl)-1-propanone]",0.1346,–
COc1cc(C(=O)NCCN(C)C)ccc1OCCC(C)C [N-[2-(dimethylamino)ethyl]-3-methoxy-4-(3-methylbutoxy)benzamide],–,6.8323
"CCN(CC)C(=O)C1CCCN(C(=O)c2ccc3nc(-c4cccc(OC)c4)oc3c2)C1 (stereo not drawn) [N,N-diethyl-1-{[2-(3-methoxyphenyl)-1,3-benzoxazol-6-yl]carbonyl}-3-piperidinecarboxamide]",0.1463,–
"Cc1cc(O)c(O)cc1C(=O)N1CCCC1 [4-methyl-5-(pyrrolidine-1-carbonyl)benzene-1,2-diol]",–,−40.485
"CC(C)N(CCO)C(=O)c1ccc2oc(-c3ccc(C(F)(F)F)cc3)nc2c1 [N-(2-hydroxyethyl)-N-isopropyl-2-[4-(trifluoromethyl)phenyl]-1,3-benzoxazole-5-carboxamide]",0.1324,–
"O=C(NCc1ccno1)c1ccc2oc(-c3cccc(F)c3)nc2c1 [2-(3-fluorophenyl)-N-(isoxazol-5-ylmethyl)-1,3-benzoxazole-5-carboxamide]",0.09526,–

SMILES,Ratio of caspase-3 activity to Formula (III),"Caspase-3 induction, Normalized to Formula (III) (%)"
"COc1cccc(-c2nc3ccc(C(=O)N(CC4CC4)CC4CCCO4)cc3o2)c1 (stereo not drawn) [N-(cyclopropylmethyl)-2-(3-methoxyphenyl)-N-(tetrahydro-2-furanylmethyl)-1,3-benzoxazole-6-carboxamide]",0.1369,–
"CN(C)CCNC(=O)c1cc2c(cc1O)OCO2 [N-[2-(dimethylamino)ethyl]-6-hydroxy-2H-1,3-benzodioxole-5-carboxamide]",–,2.3274
"O=C(NCc1ccccc1)c1ccc2nc(S)oc2c1 [N-benzyl-2-sulfanyl-1,3-benzoxazole-6-carboxamide]",–,−17.7286
"CC(NC(=O)c1ccc2oc(-c3cccc(F)c3)nc2c1)c1ncn[nH]1 (stereo not drawn) [2-(3-fluorophenyl)-N-[1-(1H-1,2,4-triazol-5-yl)ethyl]-1,3-benzoxazole-5-carboxamide]",0.1158,–
"O=C1CCC(NC(=O)c2ccc3nc(-c4ccccc4)oc3c2)C(=O)N1 (stereo not drawn) [N-(2,6-dioxopiperidin-3-yl)-2-phenyl-1,3-benzoxazole-6-carboxamide]",0.6989,–
"CCn1cc(CNC(=O)c2ccc3oc(-c4cccc(F)c4)nc3c2)cn1 [N-[(1-ethyl-1H-pyrazol-4-yl)methyl]-2-(3-fluorophenyl)-1,3-benzoxazole-5-carboxamide]",1.163,–
"CCCOC1CCCN(C(=O)c2ccc3nc(-c4cccc(OC)c4)oc3c2)C1 (stereo not drawn) [2-(3-methoxyphenyl)-6-[(3-propoxy-1-piperidinyl)carbonyl]-1,3-benzoxazole]",0.1495,–
"COc1cccc(-c2nc3ccc(C(=O)NCc4cnc(C)cn4)cc3o2)c1 [2-(3-methoxyphenyl)-N-[(5-methylpyrazin-2-yl)methyl]-1,3-benzoxazole-6-carboxamide]",0.1387,–
"CC(C)CNC(=O)c1cc2c(cc1O)OCO2 [6-hydroxy-N-(2-methylpropyl)-2H-1,3-benzodioxole-5-carboxamide]",–,−31.2294
"Cn1cc(CNC(=O)c2ccc3oc(-c4cccc(F)c4)nc3c2)cn1 [2-(3-fluorophenyl)-N-[(1-methyl-1H-pyrazol-4-yl)methyl]-1,3-benzoxazole-5-carboxamide]",0.1005,–
"COc1cc(Br)c(C(=O)NCCN(C)C)cc1OC [2-bromo-N-[2-(dimethylamino)ethyl]-4,5-dimethoxybenzamide]",–,−70.1327
"O=C(NCc1ccccc1)c1ccc2nc(C3CC3)oc2c1 [N-benzyl-2-cyclopropyl-1,3-benzoxazole-6-carboxamide]",–,−32.882
"CN(Cc1ccn[nH]1)C(=O)c1ccc2oc(-c3ccc(C(F)(F)F)cc3)nc2c1 [N-methyl-N-(1H-pyrazol-5-ylmethyl)-2-[4-(trifluoromethyl)phenyl]-1,3-benzoxazole-5-carboxamide]",0.1414,–
CCOc1ccc(C(=O)NCC(C)C)cc1O [4-ethoxy-3-hydroxy-N-(2-methylpropyl)benzamide],–,−3.559
"O=C(c1ccc2oc(-c3cccc(F)c3)nc2c1)N1CCC(O)(c2ccccc2)CC1 [1-{[2-(3-fluorophenyl)-1,3-benzoxazol-5-yl]carbonyl}-4-phenyl-4-piperidinol]",0.1773,–
"CCCc1cc(CN(C)C(=O)c2ccc3nc(-c4cccc(OC)c4)oc3c2)n[nH]1 [2-(3-methoxyphenyl)-N-methyl-N-[(5-propyl-1H-pyrazol-3-yl)methyl]-1,3-benzoxazole-6-carboxamide]",0.1531,–
"COCCOC1CCN(C(=O)c2ccc3oc(-c4cccc(F)c4)nc3c2)CC1 [2-(3-fluorophenyl)-5-{[4-(2-methoxyethoxy)-1-piperidinyl]carbonyl}-1,3-benzoxazole]",0.1314,–
"O=C(c1ccc2nc(C3CCCCC3)oc2c1)N1CCCC1 [2-cyclohexyl-6-(pyrrolidine-1-carbonyl)-1,3-benzoxazole]",–,−29.7019
"Cc1cc(O)c(O)cc1C(=O)NC1CCCC1 [N-cyclopentyl-4,5-dihydroxy-2-methylbenzamide]",–,−66.5183
"Cn1cc(CCNC(=O)c2ccc3oc(-c4cccc(F)c4)nc3c2)cn1 [2-(3-fluorophenyl)-N-[2-(1-methyl-1H-pyrazol-4-yl)ethyl]-1,3-benzoxazole-5-carboxamide]",0.4475,–
"O=C(Cc1ccc2ocnc2c1)NC1CCCC1 [2-(1,3-benzoxazol-5-yl)-N-cyclopentylacetamide]",–,−4.02
"COc1cccc(-c2nc3ccc(C(=O)N4CCN(C5CCCC5)CC4)cc3o2)c1 [6-[(4-cyclopentyl-1-piperazinyl)carbonyl]-2-(3-methoxyphenyl)-1,3-benzoxazole]",0.1582,–
